Experimental data reported in ChEMBL document CHEMBL1156785, “Discovery of 4-[(2S)-2-{[4-(4-chlorophenoxy)phenoxy]methyl}-1-pyrrolidinyl]butanoic acid (DG-051) as a novel leukotriene A4 hydrolase inhibitor of leukotriene B4 biosynthesis” (J Med Chem, 2010).
pIC50: −log10 of the molar value.

Legend:
[1] = Volume of distribution in mouse at 10 mg/kg, iv; type: ADME, organism-based; set-up: dose 10 mg/kg, route intravenous; conditions: in vivo
[2] = Half life in mouse at 10 mg/kg, po; type: ADME, organism-based; set-up: dose 10 mg/kg, route oral; conditions: in vivo
[3] = biological target: T1, Leukotriene A-4 hydrolase (Homo sapiens, UniProt P09960)
T1 sequence (P09960 whole entry): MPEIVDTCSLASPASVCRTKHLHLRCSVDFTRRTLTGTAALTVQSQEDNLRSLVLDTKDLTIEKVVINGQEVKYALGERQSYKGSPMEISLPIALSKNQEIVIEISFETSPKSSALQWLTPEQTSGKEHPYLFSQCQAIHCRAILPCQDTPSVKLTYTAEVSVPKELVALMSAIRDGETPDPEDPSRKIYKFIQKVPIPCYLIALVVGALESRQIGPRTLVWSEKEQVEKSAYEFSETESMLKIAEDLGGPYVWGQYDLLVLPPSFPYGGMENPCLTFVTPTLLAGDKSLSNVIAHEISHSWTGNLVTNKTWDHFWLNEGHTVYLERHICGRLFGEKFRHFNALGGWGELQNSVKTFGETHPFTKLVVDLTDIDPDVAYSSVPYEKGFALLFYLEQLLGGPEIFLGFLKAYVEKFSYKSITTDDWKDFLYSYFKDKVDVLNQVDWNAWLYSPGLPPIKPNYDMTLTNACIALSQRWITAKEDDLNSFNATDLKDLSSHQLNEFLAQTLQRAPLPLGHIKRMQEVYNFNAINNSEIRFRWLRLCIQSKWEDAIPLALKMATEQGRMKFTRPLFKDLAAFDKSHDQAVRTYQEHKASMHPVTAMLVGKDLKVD
Description: Inhibition of human recombinant LTA4H hydrolysis assessed as inhibition of LTB4 formation by LC-MS/MS

[4] = biological target: T1, Leukotriene A-4 hydrolase; remark: listed apart in the source
Description: Inhibition of human LTA4H hydrolysis assessed as inhibition of Ca2+ ionophore-stimulated LTB4 formation in human whole blood by ELISA

[5] = Clearance in mouse at 10 mg/kg, iv; type: ADME, organism-based; set-up: dose 10 mg/kg, route intravenous; conditions: in vivo
[6] = Oral bioavailability in mouse at 10 mg/kg; type: ADME, organism-based; conditions: in vivo
[7] = AUC (0 to infinity) in mouse at 10 mg/kg, po; type: ADME, organism-based; set-up: time infinity, dose 10 mg/kg, route oral; conditions: plasma
[8] = Cmax in mouse at 10 mg/kg, po; type: ADME, organism-based; set-up: dose 10 mg/kg, route oral; conditions: in vivo
[9] = Metabolic stability in rat liver microsomes assessed as compound remaining after 30 mins; type: ADME, Microsome; conditions: read-out: Stability
[10] = Volume of distribution in Sprague-Dawley rat at 10 mg/kg, iv; type: ADME, organism-based; set-up: dose 10 mg/kg, route intravenous; conditions: in vivo
[11] = Cmax in Sprague-Dawley rat at 10 mg/kg, iv; type: ADME, organism-based; set-up: dose 10 mg/kg, route intravenous; conditions: in vivo
Rattus norvegicus = assay: AUC (0 to infinity) in Sprague-Dawley rat at 10 mg/kg, iv; type: ADME, organism-based, Plasma; set-up: time infinity, dose 10 mg/kg, route intravenous; conditions: in vivo
[12] = Half life in Sprague-Dawley rat at 10 mg/kg, po; type: ADME, organism-based; set-up: dose 10 mg/kg, route oral; conditions: in vivo
[13] = AUC (0 to infinity) in Sprague-Dawley rat at 10 mg/kg, po; type: ADME, organism-based; set-up: time infinity, dose 10 mg/kg, route oral; conditions: plasma
CYP3A4 = CYP3A4 (Homo sapiens, UniProt P08684); assay: Inhibition of human CYP3A4 at 10 uM; type: ADME
[14] = biological target: Endoplasmic reticulum aminopeptidase 1 (Homo sapiens) (UniProt Q9NZ08); assay: Inhibition of PILS at 10 uM
[15] = biological target: Xaa-Pro aminopeptidase 1 (Homo sapiens) (UniProt Q9NQW7); assay: Inhibition of APP1 at 10 uM
[16] = Cmax in dog at 10 mg/kg, po; type: ADME, organism-based, Canis lupus familiaris; set-up: dose 10 mg/kg, route oral; conditions: in vivo
CYP2C19 = CYP2C19 (Homo sapiens, UniProt P33261); assay: Inhibition of human CYP2C19 at 10 uM; type: ADME
Cytochrome P450 2D6 = Cytochrome P450 2D6 (Homo sapiens, UniProt P10635); assay: Inhibition of CYP2D6; type: ADME
[17] = Cmax in Sprague-Dawley rat at 10 mg/kg, po; type: ADME, organism-based; set-up: dose 10 mg/kg, route oral; conditions: in vivo
[18] = Half life in dog at 10 mg/kg, po; type: ADME, organism-based, Canis lupus familiaris; set-up: dose 10 mg/kg, route oral; conditions: in vivo
[19] = Cmax in monkey at 10 mg/kg, po; type: ADME, organism-based, Macaca mulatta; set-up: dose 10 mg/kg, route oral; conditions: rhesus monkey, in vivo
Rhesus monkey = assay: Oral bioavailability in monkey at 10 mg/kg; type: ADME, organism-based, Macaca mulatta; conditions: in vivo
[20] = AUC (0 to infinity) in dog at 10 mg/kg, po; type: ADME, organism-based, Canis lupus familiaris; set-up: time infinity, dose 10 mg/kg, route oral; conditions: plasma
[21] = biological target: Voltage-gated inwardly rectifying potassium channel KCNH2 (Homo sapiens, UniProt Q12809); assay: Inhibition of human ERG channel
CYP1A2 = biological target: T2, CYP1A2 (Homo sapiens, UniProt P05177); assay: Inhibition of human CYP1A2 at 10 uM; type: ADME
T2 sequence (P05177 whole entry): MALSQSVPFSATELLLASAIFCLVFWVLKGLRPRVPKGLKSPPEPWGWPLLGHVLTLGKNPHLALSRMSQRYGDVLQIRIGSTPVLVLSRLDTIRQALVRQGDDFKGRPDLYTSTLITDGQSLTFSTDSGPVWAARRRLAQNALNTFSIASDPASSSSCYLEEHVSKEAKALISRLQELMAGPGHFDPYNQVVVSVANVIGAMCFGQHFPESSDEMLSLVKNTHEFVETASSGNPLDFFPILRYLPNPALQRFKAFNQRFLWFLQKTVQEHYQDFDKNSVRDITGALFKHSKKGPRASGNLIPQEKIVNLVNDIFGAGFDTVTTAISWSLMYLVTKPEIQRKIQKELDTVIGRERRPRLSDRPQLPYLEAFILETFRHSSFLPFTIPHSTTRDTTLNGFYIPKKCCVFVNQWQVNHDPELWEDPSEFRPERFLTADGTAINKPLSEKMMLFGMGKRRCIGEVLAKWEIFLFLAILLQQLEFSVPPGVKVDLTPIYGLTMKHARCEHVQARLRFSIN

[22] = biological target: Glutamyl aminopeptidase (Homo sapiens) (UniProt Q07075); assay: Inhibition of APA at 10 uM
[23] = Aqueous solubility at pH 6.18; type: physicochemical; conditions: buffer
[24] = biological target: Aminopeptidase N (Homo sapiens) (UniProt P15144); assay: Inhibition of APN at 10 uM
CYP2C9 = CYP2C9 (Homo sapiens, UniProt P11712); assay: Inhibition of human CYP2C9 at 10 uM; type: ADME
[25] = AUC (0 to infinity) in monkey at 10 mg/kg, po; type: ADME, organism-based, Macaca mulatta; set-up: time infinity, dose 10 mg/kg, route oral; conditions: rhesus monkey, plasma
[26] = Oral bioavailability in Sprague-Dawley rat at 10 mg/kg; type: ADME, organism-based; conditions: in vivo
[27] = Clearance in dog at 10 mg/kg, iv; type: ADME, organism-based, Canis lupus familiaris; set-up: dose 10 mg/kg, route intravenous; conditions: in vivo
[28] = Volume of distribution in dog at 10 mg/kg, iv; type: ADME, organism-based, Canis lupus familiaris; set-up: dose 10 mg/kg, route intravenous; conditions: in vivo
[29] = Clearance in monkey at 10 mg/kg, iv; type: ADME, organism-based, Macaca mulatta; set-up: dose 10 mg/kg, route intravenous; conditions: rhesus monkey, in vivo
[30] = Volume of distribution in monkey at 10 mg/kg, iv; type: ADME, organism-based, Macaca mulatta; set-up: dose 10 mg/kg, route intravenous; conditions: rhesus monkey, in vivo
[31] = biological target: Endoplasmic reticulum aminopeptidase 2 (Homo sapiens) (UniProt Q6P179); assay: Inhibition of LRAP at 10 uM
[32] = Clearance in Sprague-Dawley rat at 10 mg/kg, iv; type: ADME, organism-based; set-up: dose 10 mg/kg, route intravenous; conditions: in vivo
[33] = Half life in monkey at 10 mg/kg, po; type: ADME, organism-based, Macaca mulatta; set-up: dose 10 mg/kg, route oral; conditions: rhesus monkey, in vivo

Sequence of Voltage-gated inwardly rectifying potassium channel KCNH2 (Q12809 whole entry): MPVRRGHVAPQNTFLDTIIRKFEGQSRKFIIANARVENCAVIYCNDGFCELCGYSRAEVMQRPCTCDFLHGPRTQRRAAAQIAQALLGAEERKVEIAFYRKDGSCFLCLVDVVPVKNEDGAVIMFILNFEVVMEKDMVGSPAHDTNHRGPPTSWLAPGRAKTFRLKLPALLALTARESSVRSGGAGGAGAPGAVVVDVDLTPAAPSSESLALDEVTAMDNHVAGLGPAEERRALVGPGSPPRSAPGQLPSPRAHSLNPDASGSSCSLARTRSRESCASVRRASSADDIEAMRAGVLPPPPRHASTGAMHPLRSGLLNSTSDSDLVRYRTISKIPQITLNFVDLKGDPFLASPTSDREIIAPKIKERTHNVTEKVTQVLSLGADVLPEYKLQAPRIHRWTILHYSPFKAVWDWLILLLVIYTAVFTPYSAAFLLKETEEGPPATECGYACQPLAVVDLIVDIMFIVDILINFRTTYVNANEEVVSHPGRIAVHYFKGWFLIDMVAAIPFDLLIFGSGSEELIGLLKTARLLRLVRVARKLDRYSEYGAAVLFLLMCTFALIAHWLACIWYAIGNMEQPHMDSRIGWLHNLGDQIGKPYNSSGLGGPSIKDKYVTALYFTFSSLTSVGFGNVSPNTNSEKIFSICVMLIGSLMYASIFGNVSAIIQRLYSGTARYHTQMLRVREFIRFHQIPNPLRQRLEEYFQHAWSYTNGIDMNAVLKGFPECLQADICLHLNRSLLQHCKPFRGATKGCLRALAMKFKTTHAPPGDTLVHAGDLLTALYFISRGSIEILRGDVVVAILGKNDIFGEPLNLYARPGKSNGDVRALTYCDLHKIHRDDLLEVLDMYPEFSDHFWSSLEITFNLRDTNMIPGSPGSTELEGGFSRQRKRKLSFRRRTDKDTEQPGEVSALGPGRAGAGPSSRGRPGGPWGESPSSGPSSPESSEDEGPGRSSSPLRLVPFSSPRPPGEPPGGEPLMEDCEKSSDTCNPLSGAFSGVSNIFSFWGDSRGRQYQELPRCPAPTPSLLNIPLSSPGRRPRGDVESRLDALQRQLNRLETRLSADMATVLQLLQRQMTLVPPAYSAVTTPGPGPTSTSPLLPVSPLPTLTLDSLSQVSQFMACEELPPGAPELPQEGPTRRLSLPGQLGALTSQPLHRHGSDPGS
Sequence of Endoplasmic reticulum aminopeptidase 2 (Homo sapiens) (Q6P179 whole entry): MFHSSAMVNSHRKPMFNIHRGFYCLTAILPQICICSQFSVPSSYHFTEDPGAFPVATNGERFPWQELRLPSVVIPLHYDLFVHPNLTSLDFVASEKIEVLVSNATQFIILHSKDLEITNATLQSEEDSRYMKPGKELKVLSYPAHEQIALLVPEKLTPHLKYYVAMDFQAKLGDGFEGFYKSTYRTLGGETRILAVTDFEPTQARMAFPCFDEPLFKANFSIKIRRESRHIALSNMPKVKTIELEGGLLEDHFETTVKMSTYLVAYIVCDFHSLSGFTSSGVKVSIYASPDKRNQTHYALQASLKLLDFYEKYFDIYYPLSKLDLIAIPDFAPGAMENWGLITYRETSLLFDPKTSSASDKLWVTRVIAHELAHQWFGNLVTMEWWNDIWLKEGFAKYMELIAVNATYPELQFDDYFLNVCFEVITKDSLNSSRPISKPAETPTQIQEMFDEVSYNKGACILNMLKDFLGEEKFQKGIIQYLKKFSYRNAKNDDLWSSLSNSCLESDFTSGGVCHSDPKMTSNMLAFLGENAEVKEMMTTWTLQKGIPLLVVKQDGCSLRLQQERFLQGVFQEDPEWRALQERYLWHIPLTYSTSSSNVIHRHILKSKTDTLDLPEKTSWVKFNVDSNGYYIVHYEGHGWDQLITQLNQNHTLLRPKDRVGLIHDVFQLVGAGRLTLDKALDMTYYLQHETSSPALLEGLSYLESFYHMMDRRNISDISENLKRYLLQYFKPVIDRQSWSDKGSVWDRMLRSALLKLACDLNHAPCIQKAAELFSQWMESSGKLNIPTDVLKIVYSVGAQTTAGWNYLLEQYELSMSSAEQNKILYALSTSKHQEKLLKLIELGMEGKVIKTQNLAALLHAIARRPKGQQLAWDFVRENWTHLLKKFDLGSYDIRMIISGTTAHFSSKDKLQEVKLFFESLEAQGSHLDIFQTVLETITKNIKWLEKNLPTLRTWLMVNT
Sequence of CYP3A4 (P08684 whole entry): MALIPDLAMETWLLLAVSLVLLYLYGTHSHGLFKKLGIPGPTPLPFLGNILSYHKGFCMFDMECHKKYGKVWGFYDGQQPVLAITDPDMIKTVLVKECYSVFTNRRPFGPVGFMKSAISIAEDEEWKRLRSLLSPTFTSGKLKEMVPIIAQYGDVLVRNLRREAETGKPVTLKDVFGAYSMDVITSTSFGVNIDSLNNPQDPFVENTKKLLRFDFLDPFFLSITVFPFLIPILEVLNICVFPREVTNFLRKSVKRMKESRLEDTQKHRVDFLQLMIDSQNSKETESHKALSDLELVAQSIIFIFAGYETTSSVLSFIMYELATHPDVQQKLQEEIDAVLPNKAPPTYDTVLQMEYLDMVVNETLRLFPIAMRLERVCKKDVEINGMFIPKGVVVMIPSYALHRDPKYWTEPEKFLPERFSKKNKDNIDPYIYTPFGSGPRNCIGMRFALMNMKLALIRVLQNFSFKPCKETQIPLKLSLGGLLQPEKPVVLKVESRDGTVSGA
Sequence of Xaa-Pro aminopeptidase 1 (Homo sapiens) (Q9NQW7 whole entry, looked up): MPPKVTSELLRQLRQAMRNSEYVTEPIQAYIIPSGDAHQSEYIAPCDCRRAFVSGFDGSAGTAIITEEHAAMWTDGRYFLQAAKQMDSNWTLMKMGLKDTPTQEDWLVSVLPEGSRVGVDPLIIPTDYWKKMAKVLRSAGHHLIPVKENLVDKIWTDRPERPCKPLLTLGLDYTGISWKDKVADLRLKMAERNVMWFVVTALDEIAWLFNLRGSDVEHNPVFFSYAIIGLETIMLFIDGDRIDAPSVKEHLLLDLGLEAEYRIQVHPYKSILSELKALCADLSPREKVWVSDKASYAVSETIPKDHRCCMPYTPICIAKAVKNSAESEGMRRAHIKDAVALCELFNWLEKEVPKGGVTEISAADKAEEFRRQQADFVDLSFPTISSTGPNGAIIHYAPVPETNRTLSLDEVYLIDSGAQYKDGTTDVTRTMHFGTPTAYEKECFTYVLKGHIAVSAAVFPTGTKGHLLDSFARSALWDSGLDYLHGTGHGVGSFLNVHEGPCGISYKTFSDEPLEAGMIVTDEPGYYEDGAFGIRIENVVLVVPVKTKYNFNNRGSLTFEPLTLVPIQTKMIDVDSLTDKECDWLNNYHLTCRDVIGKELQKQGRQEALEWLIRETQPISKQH
Sequence of Endoplasmic reticulum aminopeptidase 1 (Homo sapiens) (Q9NZ08 whole entry): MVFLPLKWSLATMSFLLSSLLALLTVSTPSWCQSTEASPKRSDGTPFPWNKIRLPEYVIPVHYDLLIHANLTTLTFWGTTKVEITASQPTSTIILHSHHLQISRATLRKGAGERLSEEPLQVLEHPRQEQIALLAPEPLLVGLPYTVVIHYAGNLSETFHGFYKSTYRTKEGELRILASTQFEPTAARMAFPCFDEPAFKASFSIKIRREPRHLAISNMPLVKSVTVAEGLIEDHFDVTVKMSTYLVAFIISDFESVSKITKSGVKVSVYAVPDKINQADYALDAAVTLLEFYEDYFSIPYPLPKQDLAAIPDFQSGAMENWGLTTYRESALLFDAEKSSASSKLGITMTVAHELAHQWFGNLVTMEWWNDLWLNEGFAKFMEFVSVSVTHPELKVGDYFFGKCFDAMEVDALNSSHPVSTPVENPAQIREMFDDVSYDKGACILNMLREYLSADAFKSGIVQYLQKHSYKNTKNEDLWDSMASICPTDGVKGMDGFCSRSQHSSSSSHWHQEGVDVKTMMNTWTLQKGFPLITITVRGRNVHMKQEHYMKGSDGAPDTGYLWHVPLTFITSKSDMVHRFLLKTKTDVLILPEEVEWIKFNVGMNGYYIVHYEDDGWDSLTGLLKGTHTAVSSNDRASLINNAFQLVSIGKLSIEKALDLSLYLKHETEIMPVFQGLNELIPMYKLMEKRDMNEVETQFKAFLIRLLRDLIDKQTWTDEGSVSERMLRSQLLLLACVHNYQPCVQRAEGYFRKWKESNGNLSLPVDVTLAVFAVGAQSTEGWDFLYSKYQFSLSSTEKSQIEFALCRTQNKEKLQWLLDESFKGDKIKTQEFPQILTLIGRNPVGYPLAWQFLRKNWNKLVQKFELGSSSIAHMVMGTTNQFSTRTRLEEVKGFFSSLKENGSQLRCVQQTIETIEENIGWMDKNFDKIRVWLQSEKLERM
Sequence of CYP2C9 (P11712 whole entry): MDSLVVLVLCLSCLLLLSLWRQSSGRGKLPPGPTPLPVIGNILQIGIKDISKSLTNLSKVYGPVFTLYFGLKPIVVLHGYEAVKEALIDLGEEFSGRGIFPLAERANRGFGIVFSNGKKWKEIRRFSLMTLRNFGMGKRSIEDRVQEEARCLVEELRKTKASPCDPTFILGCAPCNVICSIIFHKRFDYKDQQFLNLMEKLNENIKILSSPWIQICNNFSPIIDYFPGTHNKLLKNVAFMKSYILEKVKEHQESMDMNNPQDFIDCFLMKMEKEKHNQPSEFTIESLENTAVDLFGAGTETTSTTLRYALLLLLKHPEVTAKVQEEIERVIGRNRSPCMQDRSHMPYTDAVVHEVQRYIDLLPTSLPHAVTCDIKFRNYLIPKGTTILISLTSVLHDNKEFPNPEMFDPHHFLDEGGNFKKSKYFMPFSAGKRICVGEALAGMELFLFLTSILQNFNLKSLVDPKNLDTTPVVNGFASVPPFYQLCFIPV

Clc1ccc(Oc2ccc(OC[C@H]3CCCN3)cc2)cc1
Vd [1]: 6.32 L/kg | half-life [2]: 3.59 h | pIC50 [3]: 7.52 | pIC50 [4]: 6.27 | clearance [5]: 61 mL/min/kg | bioavailability [6]: 85% | AUC(0-inf) [7]: 2360 ng·h/mL | Cmax [8]: 1.02 µM | remaining at 0.5 h [9]: 86.6%

c1ccc(Cc2ccc(OC[C@H]3CCCN3)cc2)cc1
Vd [10]: 6.12 L/kg | Cmax [11]: 1.46 µM | AUC (Rattus norvegicus): 471 ng·h/mL | half-life [12]: 0.67 h | remaining at 0.5 h [9]: 10.5%

c1ccc(Cc2ccc(OCCc3ccncc3)cc2)cc1
pIC50 [3]: 5.06

O=C(O)CCCN1CCC[C@H]1COc1ccc(Oc2ccc(Cl)cc2)cc1
AUC(0-inf) [13]: 13000 ng·h/mL | Vd [10]: 2.35 L/kg | inhibition at 10 µM (CYP3A4): < 50% | inhibition [14]: > 50% | inhibition [15]: > 50% | Cmax [16]: 19.3 µM | inhibition at 10 µM (CYP2C19): < 50% | inhibition (INH) (Cytochrome P450 2D6): < 50% | Cmax [17]: 4.8 µM | half-life [18]: 4.02 h | Cmax [19]: 18.9 µM | F (Rhesus monkey): 186% | AUC(0-inf) [20]: 56000 ng·h/mL | inhibition (INH) [21]: > 50% | inhibition at 10 µM (CYP1A2): < 50% | inhibition [22]: > 50% | solubility [23]: > 30 mg/mL | inhibition [24]: > 50% | inhibition at 10 µM (CYP2C9): < 50% | AUC(0-inf) [25]: 52400 ng·h/mL | bioavailability [26]: 87% | clearance [27]: 7.6 mL/min/kg | Vd [28]: 1.56 L/kg | clearance [29]: 6 mL/min/kg | half-life [12]: 2.57 h | Vd [30]: 2.07 L/kg | inhibition [31]: > 50% | clearance [32]: 11 mL/min/kg | half-life [33]: 5.54 h | remaining at 0.5 h [9]: 95.2%

Ic1ccc(Oc2ccc(N3CCNCC3)cc2)cc1
pIC50 [3]: 6.47
